According to ChEMBL document CHEMBL4507276 (2021):

Experiments:
[1] = molecular target: Receptor tyrosine-protein kinase erbB-4 (Homo sapiens) (UniProt Q15303); conditions: Compound concentration 1000.0 nM
[2] = molecular target: T1, Inhibitor of nuclear factor kappa-B kinase subunit beta (Homo sapiens) (UniProt O14920); conditions: Compound concentration 1000.0 nM
T1 sequence (whole entry): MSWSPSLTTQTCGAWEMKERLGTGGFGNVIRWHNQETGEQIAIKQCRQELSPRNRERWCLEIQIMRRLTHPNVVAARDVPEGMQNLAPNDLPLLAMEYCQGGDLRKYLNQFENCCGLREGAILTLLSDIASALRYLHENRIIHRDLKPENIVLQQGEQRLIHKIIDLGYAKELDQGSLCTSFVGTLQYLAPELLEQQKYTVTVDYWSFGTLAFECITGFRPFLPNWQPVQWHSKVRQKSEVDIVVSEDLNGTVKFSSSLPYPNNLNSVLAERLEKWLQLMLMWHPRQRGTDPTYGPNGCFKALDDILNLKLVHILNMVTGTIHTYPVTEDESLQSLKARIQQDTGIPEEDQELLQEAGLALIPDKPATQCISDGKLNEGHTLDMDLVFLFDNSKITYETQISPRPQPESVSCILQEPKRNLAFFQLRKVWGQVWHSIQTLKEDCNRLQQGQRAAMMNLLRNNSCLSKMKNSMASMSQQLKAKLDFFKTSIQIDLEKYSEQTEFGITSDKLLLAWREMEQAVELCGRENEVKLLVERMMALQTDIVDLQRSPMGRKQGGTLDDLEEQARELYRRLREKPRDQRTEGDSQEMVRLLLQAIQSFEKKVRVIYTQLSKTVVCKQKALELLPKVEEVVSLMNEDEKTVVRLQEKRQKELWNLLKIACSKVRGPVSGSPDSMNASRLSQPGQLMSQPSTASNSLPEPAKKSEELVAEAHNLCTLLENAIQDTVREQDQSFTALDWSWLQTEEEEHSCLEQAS

[3] = molecular target: Calcium/calmodulin-dependent protein kinase type 1D (Homo sapiens) (UniProt Q8IU85); conditions: Compound concentration 1000.0 nM
[4] = molecular target: Insulin receptor-related protein (Homo sapiens) (UniProt P14616); conditions: Compound concentration 1000.0 nM
Chain of Insulin receptor-related protein (Homo sapiens) (P14616 27-742 limits assumed): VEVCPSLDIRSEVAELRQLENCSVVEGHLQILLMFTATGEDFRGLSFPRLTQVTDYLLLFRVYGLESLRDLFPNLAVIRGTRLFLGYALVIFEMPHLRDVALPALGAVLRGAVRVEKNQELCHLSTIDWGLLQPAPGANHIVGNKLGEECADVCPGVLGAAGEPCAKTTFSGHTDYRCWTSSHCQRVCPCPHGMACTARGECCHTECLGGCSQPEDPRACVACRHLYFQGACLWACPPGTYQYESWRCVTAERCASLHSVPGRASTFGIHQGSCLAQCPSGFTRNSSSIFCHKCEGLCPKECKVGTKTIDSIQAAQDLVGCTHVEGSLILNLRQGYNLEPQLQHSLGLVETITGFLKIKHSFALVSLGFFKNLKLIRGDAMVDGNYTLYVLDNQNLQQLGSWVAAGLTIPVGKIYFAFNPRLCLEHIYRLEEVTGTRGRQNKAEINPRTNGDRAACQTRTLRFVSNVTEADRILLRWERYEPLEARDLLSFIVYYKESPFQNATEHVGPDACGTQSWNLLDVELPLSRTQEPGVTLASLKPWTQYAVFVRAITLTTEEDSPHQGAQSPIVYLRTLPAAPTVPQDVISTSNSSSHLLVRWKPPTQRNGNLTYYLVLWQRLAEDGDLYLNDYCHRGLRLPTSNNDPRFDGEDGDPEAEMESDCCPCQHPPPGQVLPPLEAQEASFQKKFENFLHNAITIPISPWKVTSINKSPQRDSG
Chain of Insulin receptor-related protein (Homo sapiens) (P14616 747-1297 limits assumed): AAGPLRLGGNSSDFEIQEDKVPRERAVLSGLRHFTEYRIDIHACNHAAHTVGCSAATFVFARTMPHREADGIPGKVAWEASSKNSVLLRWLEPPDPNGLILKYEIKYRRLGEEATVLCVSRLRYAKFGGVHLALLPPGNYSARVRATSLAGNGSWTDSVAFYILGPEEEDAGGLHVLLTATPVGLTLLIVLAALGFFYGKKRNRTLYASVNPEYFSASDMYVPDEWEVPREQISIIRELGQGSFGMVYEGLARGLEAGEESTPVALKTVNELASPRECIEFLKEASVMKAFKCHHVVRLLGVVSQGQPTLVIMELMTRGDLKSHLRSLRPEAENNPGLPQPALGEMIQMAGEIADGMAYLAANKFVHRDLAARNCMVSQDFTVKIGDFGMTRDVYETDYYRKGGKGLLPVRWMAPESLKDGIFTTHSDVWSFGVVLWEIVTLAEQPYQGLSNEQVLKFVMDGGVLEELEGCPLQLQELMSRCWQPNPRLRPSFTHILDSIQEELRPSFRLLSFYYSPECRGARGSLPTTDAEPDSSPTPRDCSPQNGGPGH

[5] = molecular target: Serine/threonine-protein kinase WNK2 (Homo sapiens) (UniProt Q9Y3S1); conditions: Compound concentration 1000.0 nM
[6] = molecular target: Serine/threonine-protein kinase PAK 5 (Homo sapiens) (UniProt Q9P286); conditions: Compound concentration 1000.0 nM
[7] = molecular target: Tyrosine-protein kinase Fer (Homo sapiens) (UniProt P16591); conditions: Compound concentration 1000.0 nM
Chain of Tyrosine-protein kinase Fer (Homo sapiens) (P16591 whole entry, looked up): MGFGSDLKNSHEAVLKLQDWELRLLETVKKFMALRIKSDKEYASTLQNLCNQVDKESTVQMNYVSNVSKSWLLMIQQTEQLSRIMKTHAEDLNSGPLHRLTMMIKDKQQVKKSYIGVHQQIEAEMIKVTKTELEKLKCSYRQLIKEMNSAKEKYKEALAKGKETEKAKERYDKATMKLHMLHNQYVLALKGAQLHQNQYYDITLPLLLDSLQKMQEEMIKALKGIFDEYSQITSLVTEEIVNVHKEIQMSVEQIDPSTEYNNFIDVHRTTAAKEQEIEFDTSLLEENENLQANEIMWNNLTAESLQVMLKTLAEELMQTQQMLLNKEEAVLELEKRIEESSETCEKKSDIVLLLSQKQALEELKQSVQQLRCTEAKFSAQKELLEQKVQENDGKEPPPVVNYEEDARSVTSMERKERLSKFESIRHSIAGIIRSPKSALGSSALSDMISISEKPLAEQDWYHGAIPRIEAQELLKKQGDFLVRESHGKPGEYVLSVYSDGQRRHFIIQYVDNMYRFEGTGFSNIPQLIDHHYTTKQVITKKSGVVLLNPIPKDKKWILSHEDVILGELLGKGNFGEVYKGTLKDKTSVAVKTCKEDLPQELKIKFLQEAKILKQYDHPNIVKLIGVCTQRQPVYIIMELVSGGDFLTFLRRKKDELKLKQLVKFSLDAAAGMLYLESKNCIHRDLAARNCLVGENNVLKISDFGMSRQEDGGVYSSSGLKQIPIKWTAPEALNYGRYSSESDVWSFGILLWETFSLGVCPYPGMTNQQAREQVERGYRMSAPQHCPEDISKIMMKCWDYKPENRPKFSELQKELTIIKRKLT

[8] = molecular target: 5-hydroxytryptamine receptor 5A (Homo sapiens) (UniProt P47898); conditions: Compound concentration 10.0 uM
[9] = molecular target: Mitogen-activated protein kinase 6 (Homo sapiens) (UniProt Q16659); conditions: Compound concentration 1000.0 nM
Chain of Mitogen-activated protein kinase 6 (Homo sapiens) (Q16659 whole entry): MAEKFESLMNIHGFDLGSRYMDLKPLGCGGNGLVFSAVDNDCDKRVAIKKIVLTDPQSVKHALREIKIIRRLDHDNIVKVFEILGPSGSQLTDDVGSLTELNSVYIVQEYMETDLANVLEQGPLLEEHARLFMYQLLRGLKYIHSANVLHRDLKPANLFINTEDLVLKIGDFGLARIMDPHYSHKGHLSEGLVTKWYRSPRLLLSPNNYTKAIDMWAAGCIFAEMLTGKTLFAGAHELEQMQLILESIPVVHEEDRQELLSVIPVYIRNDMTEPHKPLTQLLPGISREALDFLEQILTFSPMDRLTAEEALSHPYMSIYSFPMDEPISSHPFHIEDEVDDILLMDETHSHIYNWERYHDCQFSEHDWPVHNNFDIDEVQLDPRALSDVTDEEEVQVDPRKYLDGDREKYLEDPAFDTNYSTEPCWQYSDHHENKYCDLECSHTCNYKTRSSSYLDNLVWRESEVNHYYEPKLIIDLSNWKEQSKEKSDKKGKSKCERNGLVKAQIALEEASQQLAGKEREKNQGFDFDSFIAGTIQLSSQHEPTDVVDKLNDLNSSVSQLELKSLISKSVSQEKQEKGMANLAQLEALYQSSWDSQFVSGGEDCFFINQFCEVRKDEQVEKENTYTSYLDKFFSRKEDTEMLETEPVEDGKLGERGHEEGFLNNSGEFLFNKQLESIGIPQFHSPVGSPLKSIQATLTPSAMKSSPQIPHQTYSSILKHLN

[10] = molecular target: Serine/threonine-protein kinase ULK3 (Homo sapiens) (UniProt Q6PHR2); conditions: Compound concentration 1000.0 nM
[11] = test system: Mast/stem cell growth factor receptor Kit (Homo sapiens), P10721 [D816V]; conditions: Compound concentration 1000.0 nM
[12] = molecular target: SRSF protein kinase 1 (Homo sapiens) (UniProt Q96SB4); conditions: Compound concentration 1000.0 nM
Chain of SRSF protein kinase 1 (Homo sapiens) (Q96SB4 whole entry): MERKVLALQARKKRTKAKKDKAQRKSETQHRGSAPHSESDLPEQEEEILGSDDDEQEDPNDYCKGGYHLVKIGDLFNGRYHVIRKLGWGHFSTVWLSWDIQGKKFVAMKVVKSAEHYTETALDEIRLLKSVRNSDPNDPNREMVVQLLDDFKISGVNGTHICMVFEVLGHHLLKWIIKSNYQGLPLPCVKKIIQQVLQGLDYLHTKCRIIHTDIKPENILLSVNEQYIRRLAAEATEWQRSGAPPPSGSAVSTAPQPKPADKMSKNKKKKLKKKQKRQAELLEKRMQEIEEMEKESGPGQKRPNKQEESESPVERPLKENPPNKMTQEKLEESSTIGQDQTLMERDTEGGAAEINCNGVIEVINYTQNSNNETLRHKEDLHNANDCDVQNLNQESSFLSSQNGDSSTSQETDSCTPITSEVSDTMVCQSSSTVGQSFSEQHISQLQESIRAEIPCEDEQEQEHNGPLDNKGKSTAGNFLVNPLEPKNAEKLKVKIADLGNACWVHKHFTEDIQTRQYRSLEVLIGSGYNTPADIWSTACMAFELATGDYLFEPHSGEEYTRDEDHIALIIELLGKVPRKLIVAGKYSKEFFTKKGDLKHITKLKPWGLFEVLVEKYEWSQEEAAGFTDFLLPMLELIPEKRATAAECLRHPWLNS

[13] = test system: Tyrosine-protein kinase ABL1 (Homo sapiens), P00519 [F317L]; conditions: Compound concentration 1000.0 nM
[14] = molecular target: T2, G protein-coupled receptor kinase 3 (Homo sapiens) (UniProt P35626); conditions: Compound concentration 1000.0 nM
T2 sequence (whole entry): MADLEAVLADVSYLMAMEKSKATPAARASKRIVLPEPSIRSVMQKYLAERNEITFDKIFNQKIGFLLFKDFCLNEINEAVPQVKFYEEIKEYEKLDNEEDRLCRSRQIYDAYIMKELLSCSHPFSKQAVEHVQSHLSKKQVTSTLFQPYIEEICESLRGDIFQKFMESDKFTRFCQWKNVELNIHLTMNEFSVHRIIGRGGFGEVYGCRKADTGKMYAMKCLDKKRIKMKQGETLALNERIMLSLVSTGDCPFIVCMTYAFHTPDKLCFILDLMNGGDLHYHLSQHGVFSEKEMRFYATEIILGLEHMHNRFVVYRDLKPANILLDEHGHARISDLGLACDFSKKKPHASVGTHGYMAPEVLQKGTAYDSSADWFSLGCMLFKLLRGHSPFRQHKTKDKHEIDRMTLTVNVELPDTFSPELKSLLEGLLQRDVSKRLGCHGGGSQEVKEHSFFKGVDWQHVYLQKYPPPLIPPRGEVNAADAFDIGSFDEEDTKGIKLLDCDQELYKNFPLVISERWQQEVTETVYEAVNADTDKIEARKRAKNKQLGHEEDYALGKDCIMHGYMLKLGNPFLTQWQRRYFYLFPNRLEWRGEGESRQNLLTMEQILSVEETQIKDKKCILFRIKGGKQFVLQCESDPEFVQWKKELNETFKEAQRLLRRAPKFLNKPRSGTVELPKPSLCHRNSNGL

[15] = molecular target: Tyrosine-protein kinase HCK (Homo sapiens) (UniProt P08631); conditions: Compound concentration 1000.0 nM
[16] = molecular target: Tyrosine-protein kinase CSK (Homo sapiens) (UniProt P41240); conditions: Compound concentration 1000.0 nM
[17] = molecular target: Rho-associated protein kinase 1 (Homo sapiens) (UniProt Q13464); conditions: Compound concentration 1000.0 nM
Chain of Rho-associated protein kinase 1 (Homo sapiens) (Q13464 2-1354 limits assumed): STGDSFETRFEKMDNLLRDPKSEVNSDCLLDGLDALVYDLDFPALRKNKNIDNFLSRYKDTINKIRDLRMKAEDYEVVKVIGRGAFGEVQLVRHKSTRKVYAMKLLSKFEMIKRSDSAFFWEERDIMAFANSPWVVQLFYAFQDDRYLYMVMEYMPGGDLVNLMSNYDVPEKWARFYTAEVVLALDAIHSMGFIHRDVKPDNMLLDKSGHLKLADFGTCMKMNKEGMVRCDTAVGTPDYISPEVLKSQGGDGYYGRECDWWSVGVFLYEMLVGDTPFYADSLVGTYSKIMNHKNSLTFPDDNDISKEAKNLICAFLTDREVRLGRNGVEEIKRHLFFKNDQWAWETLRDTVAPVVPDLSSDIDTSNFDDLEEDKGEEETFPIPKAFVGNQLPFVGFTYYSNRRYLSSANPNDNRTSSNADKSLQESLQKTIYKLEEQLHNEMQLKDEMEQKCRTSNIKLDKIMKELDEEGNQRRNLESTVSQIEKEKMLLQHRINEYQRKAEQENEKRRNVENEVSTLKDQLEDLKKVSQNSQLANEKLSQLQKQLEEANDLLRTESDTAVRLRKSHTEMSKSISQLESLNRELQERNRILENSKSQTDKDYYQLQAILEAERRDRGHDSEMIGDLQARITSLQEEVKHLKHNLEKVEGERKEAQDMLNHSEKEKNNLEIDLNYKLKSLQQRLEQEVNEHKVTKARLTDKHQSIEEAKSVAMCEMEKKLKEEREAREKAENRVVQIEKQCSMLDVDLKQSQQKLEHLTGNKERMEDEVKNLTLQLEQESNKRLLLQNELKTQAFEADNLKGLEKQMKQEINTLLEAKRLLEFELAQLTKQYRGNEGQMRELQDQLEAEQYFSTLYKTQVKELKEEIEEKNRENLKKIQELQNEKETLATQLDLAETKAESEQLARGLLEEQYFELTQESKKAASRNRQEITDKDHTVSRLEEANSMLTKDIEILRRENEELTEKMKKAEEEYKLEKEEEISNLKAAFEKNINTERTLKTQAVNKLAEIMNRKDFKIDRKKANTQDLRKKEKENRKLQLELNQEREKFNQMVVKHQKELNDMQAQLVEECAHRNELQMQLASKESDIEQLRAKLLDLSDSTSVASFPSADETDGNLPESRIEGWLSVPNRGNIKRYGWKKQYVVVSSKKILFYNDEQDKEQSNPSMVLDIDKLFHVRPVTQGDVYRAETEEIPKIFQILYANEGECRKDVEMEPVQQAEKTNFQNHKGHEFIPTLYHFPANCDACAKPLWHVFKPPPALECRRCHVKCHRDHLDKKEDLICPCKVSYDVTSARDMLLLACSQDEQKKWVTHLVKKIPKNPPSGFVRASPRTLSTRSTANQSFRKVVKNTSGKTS

[18] = molecular target: Cyclin-dependent kinase-like 3 (Homo sapiens) (UniProt Q8IVW4); conditions: Compound concentration 1000.0 nM
[19] = molecular target: Fibroblast growth factor receptor 3 (Homo sapiens) (UniProt P22607); conditions: Compound concentration 1000.0 nM
[20] = molecular target: Receptor-interacting serine/threonine-protein kinase 1 (Homo sapiens) (UniProt Q13546); conditions: Compound concentration 1000.0 nM
[21] = molecular target: Non-receptor tyrosine-protein kinase TYK2 (Homo sapiens) (UniProt P29597); conditions: Compound concentration 1000.0 nM

CN(C)C(=O)Cn1cc(-c2nc(C3(c4ccc(-c5cnc(N)nc5)cc4)CC3)no2)cn1 [BI 0153]
inactive: residual activity [1] 100% | residual activity [2] 90% | residual activity [3] 100% | residual activity [4] 100% | residual activity [5] 67% | residual activity [6] 88% | residual activity [7] 79% | inhibition [8] 0.23% | residual activity [9] 91% | residual activity [10] 68% | residual activity [11] 92% | residual activity [12] 93% | residual activity [13] 85% | residual activity [14] 69% | residual activity [15] 100% | residual activity [16] 100% | residual activity [17] 83% | residual activity [18] 80% | residual activity [19] 100% | residual activity [20] 89% | residual activity [21] 100%

CN(C)C(=O)Cn1cc(-c2nc([C@@](C)(c3ccc(-c4cnc(N)nc4)cc3)C3CC3)no2)cn1 [BI 665915]
inactive: residual activity [1] 100% | residual activity [2] 100% | residual activity [3] 100% | residual activity [4] 99% | residual activity [5] 100% | residual activity [6] 100% | residual activity [7] 94% | inhibition [8] -4.97% | residual activity [9] 91% | residual activity [10] 86% | residual activity [11] 94% | residual activity [12] 100% | residual activity [13] 88% | residual activity [14] 86% | residual activity [15] 79% | residual activity [16] 100% | residual activity [17] 97% | residual activity [18] 94% | residual activity [19] 94% | residual activity [20] 82% | residual activity [21] 75%
